Source: patent US20220279826A1, “OFF-FLAVOR SUPPRESSING AGENT” (AJINOMOTO CO., INC., priority 2019, published 2022)

How the values were obtained:
[1] = Sensory evaluation of off-taste suppressing effect in 0.8 wt % potassium chloride aqueous solution (Experimental Examples 1 and 2)
[2] = Sensory evaluation in granular pea protein (Experimental Example 15); settings: Table 29
Description: Each compound shown in the following Table 29 was added to granular pea protein (manufactured by Roquette) so as to achieve the concentration (addition concentration) shown in the following Table 29 to prepare each evaluation sample.
(§1) Based on the following evaluation criteria, a panel of four experts determined by consensus the intensity of off-tastes (bitter taste, harsh taste, astringent taste) derived from pea protein in each evaluation sample, by comparison with granular pea protein without addition of any compound (negative control).

[3] = Sensory evaluation in soy protein aqueous solution (Experimental Example 13); settings: Table 27
Description: Each compound shown in the following Table 27 was added to an aqueous solution prepared by dissolving powdered soy protein (4 parts by weight) in water (96 parts by weight) (hereinafter at times referred to as soy protein aqueous solution) so as to achieve the concentration (addition concentration) shown in the following Table 27 to prepare each evaluation sample. Here, the powdered soy protein manufactured by FUJI OIL CO., LTD. was used.
(§2) Based on the following evaluation criteria, a panel of four experts determined by consensus the intensity of off-tastes (bitter taste, harsh taste, astringent taste) derived from soy protein in each evaluation sample, by comparison with a soy protein aqueous solution without addition of any compound (negative control).

[4] = Sensory evaluation in 0.15 wt % catechin aqueous solution (Experimental Example 9); settings: summary of Table 23
Description: (§3) Each compound shown in the following Table 23 was added to a 0.15 wt % catechin aqueous solution (an aqueous solution prepared by dissolving catechin (0.15 parts by weight) in ion exchange water (99.85 parts by weight)) so as to achieve the concentration (addition concentration) shown in the following Table 23 to prepare each evaluation sample.
as §2, with “taste, rough taste,” for “taste,”, “harsh” for “harsh taste, astringent”, “from catechin” for “from soy protein”, “a 0.15 wt % catechin” for “a soy protein”

[5] = Sensory evaluation in 1.5 wt % disodium phosphate aqueous solution (Experimental Example 19); settings: Table 34
Description: Each compound shown in the following Table 34 was added to a 1.5 wt % disodium phosphate aqueous solution (aqueous solution prepared by dissolving disodium phosphate (1.5 parts by weight) in water (98.5 parts by weight)) so as to achieve the concentration (addition concentration) shown in the following Table 34 to prepare each evaluation sample.
as §2, with “from disodium phosphate” for “from soy protein”, “a 1.5 wt % disodium phosphate” for “a soy protein”

[6] = Sensory evaluation in soy protein hamburg steak (Experimental Example 17); settings: Table 32
Description: Of the materials shown in the following Table 31, the materials of category 1 were first mixed, and the materials of category 2 were further mixed. The obtained mixture was formed into a circular shape of about 100 g per piece, and then baked at 180° C. for 2 minutes and 30 seconds for each of the front and back sides on an iron plate to produce a soy protein hamburg steak. Here, the granular soy protein manufactured by FUJI OIL CO., LTD. was used.
Each compound shown in the following Table 32 was added to soy protein hamburg steak so as to achieve the concentration (addition concentration) shown in the following Table 32 to prepare each evaluation sample.
as §2, with “five” for “four”, “with” for “with a”, “hamburg steak” for “aqueous solution”

[7] = Sensory evaluation in granular soy protein (Experimental Example 14); settings: text summary of Table 28
Description: Each compound shown in the following Table 28 was added to granular soy protein (manufactured by FUJI OIL CO., LTD.) so as to achieve the concentration (addition concentration) shown in the following Table 28 to prepare each evaluation sample.
as §1, with “soy” for “pea”

[8] = Sensory evaluation in 1 wt % methyl cellulose aqueous solution (Experimental Example 20); settings: Table 35
Description: Each compound shown in the following Table 35 was added to a 1 wt % methyl cellulose aqueous solution (aqueous solution prepared by dissolving methyl cellulose (1 part by weight) in water (99 parts by weight)) so as to achieve the concentration (addition concentration) shown in the following Table 35 to prepare each evaluation sample. Here, the methyl cellulose manufactured by Unitec Foods Co., Ltd. was used.
as §2, with “from methyl cellulose” for “from soy protein”, “a 1 wt % methyl cellulose” for “a soy protein”

[9] = Sensory evaluation in 0.06 wt % acesulfame potassium aqueous solution (Experimental Example 10); settings: summary of Table 24
Description: as §3, with “24” for “23”, “0.06” for “0.15”, “acesulfame potassium” for “catechin”, “acesulfame potassium (0.06” for “catechin (0.15”, “in” for “in ion exchange”, “(99.94” for “(99.85”
as §2, with “(bitter” for “(bitter taste, harsh taste, astringent”, “from acesulfame potassium” for “from soy protein”, “a 0.06 wt % acesulfame potassium” for “a soy protein”

[10] = 0.8 wt % potassium chloride aqueous solution, addition concentration 5 weight ppb (0.625 weight ppm with respect to potassium chloride)
[11] = 0.8 wt % potassium chloride aqueous solution, addition concentration 10 weight ppb (1.25 weight ppm with respect to potassium chloride)
[12] = 0.8 wt % potassium chloride aqueous solution, addition concentration 50 weight ppb (6.25 weight ppm with respect to potassium chloride)
[13] = 0.8 wt % potassium chloride aqueous solution, addition concentration 100 weight ppb (12.5 weight ppm with respect to potassium chloride)
[14] = in words, potassium chloride aqueous solutions, Tables 1 to 14
[15] = potassium chloride aqueous solutions, Tables 1 to 14

Row | SMILES | off-taste suppressing effect ([1]; 0.8 wt % potassium chloride aqueous solution, addition concentration 1 weight ppb (0.125 weight ppm with respect to potassium chloride)) | off-taste suppressing effect [1, 10] | off-taste suppressing effect [1, 11] | off-taste suppressing effect [1, 12] | off-taste suppressing effect [1, 13] | off-taste suppressing effect [1, 14] | intensity of off-tastes (bitter taste, metallic taste, harsh taste, astringent taste) derived from potassium chloride [1, 15] | intensity of off-tastes (bitter taste, harsh taste, astringent taste) derived from pea protein [2] | intensity of off-tastes (bitter taste, harsh taste, astringent taste) derived from soy protein [3] | intensity of off-tastes (bitter taste, rough taste, harsh taste) derived from catechin [4] | intensity of off-tastes (bitter taste, harsh taste, astringent taste) derived from disodium phosphate [5] | intensity of off-tastes (bitter taste, harsh taste, astringent taste) derived from soy protein [6] | intensity of off-tastes (bitter taste, harsh taste, astringent taste) derived from soy protein [7] | intensity of off-tastes (bitter taste, harsh taste, astringent taste) derived from methyl cellulose [8] | intensity of off-tastes (bitter taste) derived from acesulfame potassium [9] | off-taste suppressing effect ([1]; 0.8 wt % potassium chloride aqueous solution, addition concentration 500 weight ppb (62.5 weight ppm with respect to potassium chloride)) | off-taste suppressing effect ([1]; 0.8 wt % potassium chloride aqueous solution, addition concentration 1000 weight ppb (125 weight ppm with respect to potassium chloride)) | off-taste suppressing effect ([1]; 0.8 wt % potassium chloride aqueous solution, addition concentration 2000 weight ppb (250 weight ppm with respect to potassium chloride))
1 | CC1=C(O)C(=O)CC1 [cyclotene] | + (intensity of the same level as potassium chloride aqueous solution with potassium chloride concentration of not less than 0.75 wt % and less than 0.8 wt %) | ++ (intensity of the same level as potassium chloride aqueous solution with potassium chloride concentration of not less than 0.7 wt % and less than 0.75 wt %) | +++ (intensity of the same level as potassium chloride aqueous solution with potassium chloride concentration of not less than 0.65 wt % and less than 0.7 wt %) | +++ (intensity of the same level as potassium chloride aqueous solution with potassium chloride concentration of not less than 0.65 wt % and less than 0.7 wt %) | ++ (intensity of the same level as potassium chloride aqueous solution with potassium chloride concentration of not less than 0.7 wt % and less than 0.75 wt %) | high | decreased | suppressed | suppressed | suppressed | suppressed | suppressed | suppressed | suppressed | suppressed |  |  | 
2 | O=Cc1ccco1 [furfural, Furfural] |  | + (intensity of the same level as potassium chloride aqueous solution with potassium chloride concentration of not less than 0.75 wt % and less than 0.8 wt %) | +++ (intensity of the same level as potassium chloride aqueous solution with potassium chloride concentration of not less than 0.65 wt % and less than 0.7 wt %) | +++ (intensity of the same level as potassium chloride aqueous solution with potassium chloride concentration of not less than 0.65 wt % and less than 0.7 wt %) | + (intensity of the same level as potassium chloride aqueous solution with potassium chloride concentration of not less than 0.75 wt % and less than 0.8 wt %) | high | decreased | suppressed | suppressed | suppressed | suppressed | suppressed | suppressed | suppressed | suppressed |  |  | 
3 | CCC(=O)O [propionic acid] |  |  |  |  | + (intensity of the same level as potassium chloride aqueous solution with potassium chloride concentration of not less than 0.75 wt % and less than 0.8 wt %) | high | decreased | suppressed | suppressed | suppressed | suppressed | suppressed | suppressed | suppressed | suppressed | ++ (intensity of the same level as potassium chloride aqueous solution with potassium chloride concentration of not less than 0.7 wt % and less than 0.75 wt %) | ++ (intensity of the same level as potassium chloride aqueous solution with potassium chloride concentration of not less than 0.7 wt % and less than 0.75 wt %) | ++ (intensity of the same level as potassium chloride aqueous solution with potassium chloride concentration of not less than 0.7 wt % and less than 0.75 wt %)
